Assay results as given in patent US20170188607A1, “SOLUBILIZATION OF A SWEET MODULATOR AND FLAVOR” (Firmenich SA, priority 2014, published 2017).

Experiment: Amount of compound remaining in solution in acidic syrup kept at 3° C., measured by UV spectroscopy as a function of time
Type: physicochemical
Description: A concentrated solution 1 of (S)-1-(3-(((4-amino-2,2-dioxido-1H-benzo[c][1,2,6]thiadiazin-5-yl)oxy)methyl)piperidin-1-yl)-3-methylbutan-1-one at 0.3% (w/w) (3000 ppm) was prepared in water. pH was adjusted to 11 using NaOH to form (S)-1-(3-(((4-amino-2,2-dioxido-1H-benzo[c][1,2,6]thiadiazin-5-yl)oxy)methyl)piperidin-1-yl)-3-methylbutan-1-one sodium salt and obtain an homogeneous solution. Next, a syrup was prepared by mixing an aqueous solution of High Fructose Corn Syrup (HFCS), citric acid and deionized water. The final syrup contained 34% fructose, 0.68% citric acid, 0.1% sodium citrate and 65.22% water, with a pH of 2. […] The sample was kept at 3° C. and the amount of (S)-1-(3-(((4-amino-2,2-dioxido-1H-benzo[c][1,2,6]thiadiazin-5-yl)oxy)methyl)piperidin-1-yl)-3-methylbutan-1-one was measured by UV spectroscopy as a function of time. The amount of (S)-1-(3-(((4-amino-2,2-dioxido-1H-benzo[c][1,2,6]thiadiazin-5-yl)oxy)methyl)piperidin-1-yl)-3-methylbutan-1-one was reduced to 28 ppm after 1 week and first crystals were visually observed. After 12 weeks 1.7 ppm of (S)-1-(3-(((4-amino-2,2-dioxido-1H-benzo[c][1,2,6]thiadiazin-5-yl)oxy)methyl)piperidin-1-yl)-3-methylbutan-1-one remained in solution.
(§1) A concentrated solution 1 of (S)-1-(3-(((4-amino-2,2-dioxido-1H-benzo[c][1,2,6]thiadiazin-5-yl)oxy)methyl)piperidin-1-yl)-3-methylbutan-1-one at 0.3% (w/w) (3000 ppm) was prepared in water. pH was adjusted to 11 using NaOH to form (S)-1-(3-(((4-amino-2,2-dioxido-1H-benzo[c][1,2,6]thiadiazin-5-yl)oxy)methyl)piperidin-1-yl)-3-methylbutan-1-one sodium salt and obtain an homogeneous solution. Next, a syrup was prepared by mixing an aqueous solution of HFCS, citric acid, PVP 55k and deionized water. The final syrup contained 34% fructose, 0.68% citric acid, 0.1% sodium citrate, 0.03% PVP and 65.19% water. […] The sample was kept at 3° C. and the amount of (S)-1-(3-(((4-amino-2,2-dioxido-1H-benzo[c][1,2,6]thiadiazin-5-yl)oxy)methyl)piperidin-1-yl)-3-methylbutan-1-one was measured by UV spectroscopy as a function of time. The amount of (S)-1-(3-(((4-amino-2,2-dioxido-1H-benzo[c][1,2,6]thiadiazin-5-yl)oxy)methyl)piperidin-1-yl)-3-methylbutan-1-one was maintained at 30 ppm for 4 weeks, before a slight decrease and appearance of few crystals. After 12 weeks 9.6 ppm of (S)-1-(3-(((4-amino-2,2-dioxido-1H-benzo[c][1,2,6]thiadiazin-5-yl)oxy)methyl)piperidin-1-yl)-3-methylbutan-1-one remained in solution.
as §1, with “PVP 55k, maltodextrin (18DE)” for “PVP 55k”, “fructose, 15% maltodextrin,” for “fructose,”, “for 8” for “for 4”, “crystals.” for “crystals. After 12 weeks 9.6 ppm of (S)-1-(3-(((4-amino-2,2-dioxido-1H-benzo[c][1,2,6]thiadiazin-5-yl)oxy)methyl)piperidin-1-yl)-3-methylbutan-1-one remained in solution.”
A concentrated solution 1 of (S)-1-(3-(((4-amino-2,2-dioxido-1H-benzo[c][1,2,6]thiadiazin-5-yl)oxy)methyl)piperidin-1-yl)-3-methylbutan-1-one at 0.3% (w/w) (3000 ppm) was prepared in water. pH was adjusted to 11 using NaOH to form (S)-1-(3-(((4-amino-2,2-dioxido-1H-benzo[c][1,2,6]thiadiazin-5-yl)oxy)methyl)piperidin-1-yl)-3-methylbutan-1-one sodium salt and obtain an homogeneous solution. […]

CC(C)CC(=O)N1CCC[C@H](COc2cccc3c2C(N)=NS(=O)(=O)N3)C1 [(S)-1-(3-(((4-amino-2,2-dioxido-1H-benzo[c][1,2,6]thiadiazin-5-yl)oxy)methyl)piperidin-1-yl)-3-methylbutan-1-one]
amount remaining in solution (Example 1 (comparative): 30 ppm start, syrup 34 Brix (34% fructose, 0.68% citric acid, 0.1% sodium citrate), pH 2, no polymer, 3° C., after 1 week, first crystals visually observed): 28 ppm | amount remaining in solution (Example 1 (comparative): 30 ppm start, syrup 34 Brix, pH 2, no polymer, 3° C., after 12 weeks): 1.7 ppm | amount remaining in solution (Example 2: 30 ppm start, syrup 34 Brix with 0.03% PVP 55k, 3° C., after 12 weeks): 9.6 ppm | amount maintained in solution (Example 2: 30 ppm start, syrup 34 Brix with 0.03% PVP 55k, 3° C., maintained for 4 weeks, then slight decrease and few crystals): 30 ppm | amount remaining in solution (Example 3: 30 ppm start, syrup 34 Brix with 0.03% PVP 55k and 15% maltodextrin (18DE), 3° C., after 12 weeks): 27.3 ppm | amount maintained in solution (Example 3: 30 ppm start, syrup 34 Brix with 0.03% PVP 55k and 15% maltodextrin (18DE), 3° C., maintained for 8 weeks, then slight decrease and few crystals): 30 ppm | amount maintained in solution (Example 4: 30 ppm start, syrup 34 Brix with 0.03% HPMC (22 kDa), 3° C., maintained for 12 weeks): 30 ppm | amount remaining in solution (Example 10 (comparative): 18 ppm start, syrup 45 Brix, pH 2, no polymer, 3° C., after 7 weeks, first crystals visually observed): 15.8 ppm | amount remaining in solution (Example 10 (comparative): 18 ppm start, syrup 45 Brix, pH 2, no polymer, 3° C., after 14 weeks): 3.6 ppm | amount maintained in solution (Example 11: 18 ppm start, syrup 45 Brix with 0.0009% HPMC (Methocel K99), pH 2, 3° C., maintained for 17 weeks): 18 ppm | amount maintained in solution (Example 12: 18 ppm start, syrup 45 Brix with 0.0009% CMC, pH 2, 3° C., maintained for 16 weeks): 18 ppm | amount remaining in solution (Example 13 (comparative): 18 ppm start, syrup 20 Brix, pH 2, no polymer, 3° C., after 3.5 weeks, crystals visually observed): 14 ppm | amount remaining in solution (Example 13 (comparative): 18 ppm start, syrup 20 Brix, pH 2, no polymer, 3° C., after 18 weeks): 4 ppm | amount maintained in solution (Example 14: 18 ppm start, syrup 20 Brix with 0.0009% HPMC (Methocel K99), pH 2, 3° C., maintained for 18 weeks): 18 ppm
